Experimental data taken from paper PMC12222954 (Nature Communications, 2025).

How the values were obtained:
[1] = assay type: in vivo; details: SD rats; for effect on the intestinal absorption of capecitabine: COS 250 mg/kg
P-gp [2] = molecular target: T1, P-gp (Homo sapiens, UniProt P08183); test: SPR affinity to P-gp in SMALP-MCF-7/ADR liposomes; assay type: binding
paraquat poisoning [3] = test: Survival of paraquat-poisoned abcb1; assay type: in vivo; details: PQ-intoxicated abcb1(-/-) mice, 15 days
paraquat poisoning [4] = assay type: in vivo, SD rats; details: for survival rate: PQ-intoxicated rats, oral 2 h post-intoxication, over 15 days
P-gp [5] = molecular target: T1, P-gp; test: Transport of paraquat in P-gp recombinant inside-out vesicle model; assay type: biochemical; details: P-gp inside-out vesicles
[6] = system: tight junctions between intestinal epithelial cells; test: TEM observation of tight junctions after oral GlcN; assay type: in vivo, SD rats; details: GlcN 250 mg/kg, 20 min
[7] = assay type: in vivo; details: abcb1(-/-) mice, GlcN 500 mg/kg
[8] = Pharmacokinetics of digoxin in abcb1; assay type: in vivo; details: abcb1(-/-) mice
P-gp [9] = molecular target: T1, P-gp; assay type: biochemical; details: GlcN 10 mM, 5 min pre-incubation
CYP3A4 = CYP3A4 (Homo sapiens, UniProt P08684); details: 30 min incubation, 100 μM GlcN
Sequence of CYP3A4 (P08684 whole entry): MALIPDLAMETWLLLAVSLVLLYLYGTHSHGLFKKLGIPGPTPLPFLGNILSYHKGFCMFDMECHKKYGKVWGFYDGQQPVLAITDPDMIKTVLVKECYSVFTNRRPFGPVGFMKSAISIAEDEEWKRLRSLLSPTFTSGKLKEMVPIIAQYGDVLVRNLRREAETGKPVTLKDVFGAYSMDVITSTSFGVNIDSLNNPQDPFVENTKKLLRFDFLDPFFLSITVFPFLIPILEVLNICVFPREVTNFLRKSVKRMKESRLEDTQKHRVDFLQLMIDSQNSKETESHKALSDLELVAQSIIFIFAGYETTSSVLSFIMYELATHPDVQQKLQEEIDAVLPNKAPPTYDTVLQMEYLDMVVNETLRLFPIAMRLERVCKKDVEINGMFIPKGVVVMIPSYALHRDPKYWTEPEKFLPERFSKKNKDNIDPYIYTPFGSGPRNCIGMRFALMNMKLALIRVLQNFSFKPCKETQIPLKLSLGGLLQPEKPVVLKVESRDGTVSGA

P-gp-mediated ATPase = P-gp-mediated ATPase (Homo sapiens, UniProt P08183); test: P-gp-mediated ATPase activity in Caco-2 cells; assay type: cell-based; details: 10 μM GlcN
Sequence of P-gp-mediated ATPase (P08183 whole entry): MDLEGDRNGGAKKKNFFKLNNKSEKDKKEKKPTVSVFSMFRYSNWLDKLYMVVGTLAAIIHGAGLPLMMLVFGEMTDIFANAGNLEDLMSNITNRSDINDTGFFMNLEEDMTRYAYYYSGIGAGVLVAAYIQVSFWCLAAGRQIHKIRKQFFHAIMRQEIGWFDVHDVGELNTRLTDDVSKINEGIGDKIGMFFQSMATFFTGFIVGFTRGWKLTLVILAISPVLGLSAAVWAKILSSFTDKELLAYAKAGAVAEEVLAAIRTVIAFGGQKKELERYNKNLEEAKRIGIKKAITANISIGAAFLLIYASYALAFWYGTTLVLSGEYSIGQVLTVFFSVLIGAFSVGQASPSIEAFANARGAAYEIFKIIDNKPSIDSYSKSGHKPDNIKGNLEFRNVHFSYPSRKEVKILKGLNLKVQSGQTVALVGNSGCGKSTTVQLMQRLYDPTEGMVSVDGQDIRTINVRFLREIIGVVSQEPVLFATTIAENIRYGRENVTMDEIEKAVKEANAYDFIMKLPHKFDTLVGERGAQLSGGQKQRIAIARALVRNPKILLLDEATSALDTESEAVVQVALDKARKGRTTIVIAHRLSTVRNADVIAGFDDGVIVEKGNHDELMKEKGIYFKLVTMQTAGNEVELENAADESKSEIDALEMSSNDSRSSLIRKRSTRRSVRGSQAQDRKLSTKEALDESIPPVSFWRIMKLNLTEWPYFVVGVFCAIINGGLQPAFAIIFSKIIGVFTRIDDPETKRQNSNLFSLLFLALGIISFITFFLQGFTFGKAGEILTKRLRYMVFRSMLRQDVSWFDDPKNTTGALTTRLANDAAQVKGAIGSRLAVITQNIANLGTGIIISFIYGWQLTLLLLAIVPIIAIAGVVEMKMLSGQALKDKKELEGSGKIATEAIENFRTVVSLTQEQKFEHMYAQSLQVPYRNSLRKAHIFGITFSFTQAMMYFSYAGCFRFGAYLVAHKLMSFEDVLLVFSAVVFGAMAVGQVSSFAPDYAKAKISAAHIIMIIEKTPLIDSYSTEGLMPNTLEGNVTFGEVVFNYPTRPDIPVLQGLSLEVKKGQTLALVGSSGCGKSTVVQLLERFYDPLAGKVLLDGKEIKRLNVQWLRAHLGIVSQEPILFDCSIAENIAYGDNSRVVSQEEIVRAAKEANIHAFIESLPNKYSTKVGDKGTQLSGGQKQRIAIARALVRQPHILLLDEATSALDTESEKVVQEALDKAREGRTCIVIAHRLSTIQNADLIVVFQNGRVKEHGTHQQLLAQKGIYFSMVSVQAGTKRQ

Caco-2 cells [10] = assay type: cell-based
[11] = assay type: in vivo; details: FVB mice, GlcN 500 mg/kg
paraquat poisoning [12] = test: Survival of paraquat-poisoned FVB mice; assay type: in vivo, wt FVB mice; details: PQ-intoxicated FVB mice
P-gp [13] = molecular target: T1, P-gp; test: Cellular uptake of Rh123 in P-gp silenced; assay type: cell-based; details: P-gp knockdown Caco-2 cells, various concentrations
[14] = Molar osmotic pressure of solution after adding GlcN or Glu; assay type: physicochemical; details: GlcN concentrations below 20 mM
[15] = Intestinal transport rate, everted intestinal sac model; assay type: in vitro ADME, SD rats; details: pre-incubation 40 min
A549 cells = assay type: cell-based
Caco-2 cells [16] = test: Cell viability, Cell Counting Kit-8; assay type: cell-based; details: 48 h
[17] = assay type: in vivo, SD rats; details: Sprague-Dawley, rat, oral
[18] = Pharmacokinetics of digoxin in wild-type FVB mice with or without GlcN; assay type: in vivo
P-gp [19] = molecular target: T1, P-gp; test: Efflux of Rh123 from preloaded Caco-2 cells; assay type: cell-based; details: Rh123-preloaded Caco-2 cells, vs control

T1 sequence (P08183 whole entry): as above

## N[C@H]1[C@H](O[C@H]2[C@H](O)[C@@H](N)C(O)O[C@@H]2CO)O[C@H](CO)[C@@H](O)[C@@H]1O (some centres unmarked) [COS2, chitobiose]
[1]
  effect on the intestinal absorption of capecitabine: inhibited

## N[C@H]1[C@H](O[C@H]2[C@H](O)[C@@H](N)[C@H](O[C@H]3[C@H](O)[C@@H](N)C(O)O[C@@H]3CO)O[C@@H]2CO)O[C@H](CO)[C@@H](O)[C@@H]1O (some centres unmarked) [COS3, chitotriose]
[1]
  AUC of capecitabine, of the control group: 12.65%
  effect on the intestinal absorption of capecitabine: inhibited
P-gp [2]
  Kd: 276 µM

## N[C@H]1[C@H](O[C@H]2[C@H](O)[C@@H](N)[C@H](O[C@H]3[C@H](O)[C@@H](N)[C@H](O[C@H]4[C@H](O)[C@@H](N)[C@H](O[C@H]5[C@H](O)[C@@H](N)C(O)O[C@@H]5CO)O[C@@H]4CO)O[C@@H]3CO)O[C@@H]2CO)O[C@H](CO)[C@@H](O)[C@@H]1O (some centres unmarked) [COS5, chitopentaose]
[1]
  effect on the intestinal absorption of capecitabine: facilitated

## C[C@@H]1C[C@H]2[C@@H]3CCC4=CC(=O)C=C[C@]4(C)[C@@]3(F)[C@@H](O)C[C@]2(C)[C@@]1(O)C(=O)CO [DEX, dexamethasone, reference compound]
Paraquat poisoning [3]
  effect on survival: does not improve the survival rate within 15 days
Paraquat poisoning [4]
  survival rate: 30%

## N[C@H]1C(O)O[C@H](CO)[C@@H](O)[C@@H]1O (some centres unmarked) [GlcN, Glucosamine]
P-gp [5]
  effect on paraquat transport: enhanced its transport
[6]
  tight junctions between intestinal epithelial cells before and after oral GlcN: remained unchanged
[7]
  effect on PQ pharmacokinetics: no substantial effect
[8]
  effect on in vivo pharmacokinetic behavior of digoxin: does not affect
P-gp [9]
  transport activity relative to the control group: ~ 1.48 times
CYP3A4
  boost of CYP3A4 enzyme activity compared to the control group: 301%
P-gp-mediated ATPase
  ATPase activity compared to baseline at peak effect: doubled
Paraquat poisoning [3]
  effect on survival: fails to significantly rescue
Caco-2 cells [10]
  effect on resistance to paraquat (cell viability): significantly enhanced the resistance
[11]
  effect on PQ absorption: significantly reduced
Paraquat poisoning [12]
  effect on survival rate: improves the survival rate
P-gp [13]
  effect on intracellular accumulation level of Rh123: hardly had any effect
[14]
  ΔOsmolality: below 20 mOsmol/kg
[15]
  inhibitory effect on intestinal drug transport after prolonged pre-incubation: reverses the inhibitory effect
A549 cells
  effect on resistance to paraquat (cell viability): significantly enhanced the resistance
Caco-2 cells [16]
  concentrations that did not induce significant cytotoxicity: below 50 mM
[17]
  reduction of PQ peak plasma concentration and bioavailability: ~ 60%
[18]
  effect on oral absorption of digoxin: significantly inhibited
P-gp [19]
  effect on fluorescence intensity of intracellular Rh123 / Rh123 transport: notably reduced
Paraquat poisoning [4]
  survival rate: 60%

## C[n+]1ccc(-c2cc[n+](C)cc2)cc1 [PQ, N,N’-dimethyl-4,4’-bipyridinium]
Paraquat poisoning [4]; paraquat 350 mg/kg oral, SD rats
  time within which all poisoned rats without administration died: ≤ 6 days

## OC[C@H]1OC(O)[C@H](O)[C@@H](O)[C@@H]1O (some centres unmarked) [glucose, reference compound]
P-gp [19]
  effect on fluorescence intensity of intracellular Rh123 / Rh123 transport: no discernible effect
